According to patent US8318780B2 (Intermune, Inc., priority 2009, dated 2012):

Experiments:
[1] = Phase 1 open-label study of the impact of fluvoxamine on the pharmacokinetics of pirfenidone in healthy subjects; conditions: for Ratio of Day 11 AUC0-∞ to Day 1 AUC0-∞, Mean (SD) / Ratio of Day 11 AUC0-∞ to Day 1 AUC0-∞, Median (25th-75th): Day 11 with fluvoxamine vs Day 1 without; for AUC0-∞, Mean (SD) / AUC0-∞, Median (25th-75th): single 801-mg dose of pirfenidone, healthy subjects, n = 51, plasma
Description: Study Design. The study was a Phase 1, open-label, parallel-group study in healthy subjects. Fifty-four subjects were to be enrolled in two groups, consisting of 27 subjects who were smokers (Group 1) and 27 subjects who were nonsmokers (Group 2). […] Each group (smokers and nonsmokers) was to include a minimum of nine females and nine males, and attempts were to be made to enroll equal numbers of each sex in each group.

[2] = biological target: T1, CYP1A2 (Homo sapiens, UniProt P05177); assay: In vitro metabolism of pirfenidone by CYP isoforms; assay type: in vitro ADME
T1 sequence (P05177 1-516): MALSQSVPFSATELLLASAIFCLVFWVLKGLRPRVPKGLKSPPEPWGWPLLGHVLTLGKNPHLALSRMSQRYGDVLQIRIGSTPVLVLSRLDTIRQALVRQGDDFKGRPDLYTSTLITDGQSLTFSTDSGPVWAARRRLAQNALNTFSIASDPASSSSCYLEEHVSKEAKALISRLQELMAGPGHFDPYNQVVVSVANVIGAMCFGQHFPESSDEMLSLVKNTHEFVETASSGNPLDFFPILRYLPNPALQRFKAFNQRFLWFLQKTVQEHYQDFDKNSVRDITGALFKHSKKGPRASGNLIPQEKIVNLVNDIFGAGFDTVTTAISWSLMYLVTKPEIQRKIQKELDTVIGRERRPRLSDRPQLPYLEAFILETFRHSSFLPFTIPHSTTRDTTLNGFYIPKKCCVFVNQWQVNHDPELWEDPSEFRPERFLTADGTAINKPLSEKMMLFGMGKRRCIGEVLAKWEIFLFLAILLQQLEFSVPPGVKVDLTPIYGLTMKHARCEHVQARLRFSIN

[3] = system: multiple other CYPs (1A1, 2A6, 2B6, 2C8, 2C9, 2C18, 2C19, 2D6, 2E1, 2J2, 3A4, 3A5, 4A11, and 4F2); assay: In vitro metabolism of pirfenidone by CYP isoforms; assay type: in vitro ADME; conditions: each isoform
Description: There are no unique human metabolites.

[4] = Study Day 11: Post-Fluvoxamine (fluvoxamine Days 2-11)

SMILES | Ratio of Cmax on Day 11 to the Cmax on Day 1, mean (95% CI) ([1]; Day 11 post-fluvoxamine vs Day 1 pre-fluvoxamine, all subjects) | Effect of fluvoxamine co-administration on AUC0-∞ (significance, paired t-test) ([1]; Day 11 vs Day 1) | Ratio of Day 11 AUC0-∞ to Day 1 AUC0-∞, Mean (SD) ([1]; Nonsmokers, N 25) | Ratio of Day 11 AUC0-∞ to Day 1 AUC0-∞, Median (25th-75th) ([1]; Nonsmokers, N 25) | Ratio of Day 11 AUC0-∞ to Day 1 AUC0-∞, Mean (SD) ([1]; Smokers, N 26) | Ratio of Day 11 AUC0-∞ to Day 1 AUC0-∞, Median (25th-75th) ([1]; Smokers, N 26) | AUC0-∞, Mean (SD) ([1]; Study Day 1: Pre-Fluvoxamine) | AUC0-∞, Median (25th-75th) ([1]; Study Day 1: Pre-Fluvoxamine) | AUC0-∞, Mean (SD) [1, 4] | AUC0-∞, Median (25th-75th) [1, 4] | Share of pirfenidone metabolism by CYP1A2 [2] | Share of pirfenidone metabolism by each other CYP [3] [%]
O=C(O)c1ccc(=O)n(-c2ccccc2)c1 [5-Carboxy-Pirfenidone, 5 carboxy-pirfenidone] | 0.369 (0.349-0.390) | not a statistically significant effect | 1.05 (0.114) | 1.03 (0.978-1.11) | 1.12 (0.0951) | 1.13 (1.04-1.19) | 29.3 (8.22) mg · hr/L | 26.9 (22.0-33.7) mg · hr/L | 31.7 (8.96) mg · hr/L | 29.4 (25.4-36.5) mg · hr/L |  | 
Cc1ccc(=O)n(-c2ccccc2)c1 [Pirfenidone, 5-methyl-1-phenyl-2-(1H)-pyridone] |  |  |  |  |  |  |  |  |  |  | approx 48% | < 13
